Read-outs that look alike come from different tables or passages of the source.
Columns and labels:
[1] = DPPH free radical scavenging assay; settings: mean ± SE, triplicate; read-out: EC50 Radical Scavenging Activities DPPH
Experimental: (§1) The ability of the samples to scavenge free radicals was evaluated using a range of in vitro tests, including DPPH, ABTS, and superoxide anion radicals, with BHA utilized as a positive control.
(§2) The DPPH free radical, ABTS cation radical, and superoxide anion radical scavenging approaches were used in the antioxidant activity of the present study. The capacity for the radical scavenging was represented by EC50 values. […] Every sample was observed three times. Butylated hydroxyanisole (BHA) is the positive control drug in this evaluation of antioxidant activity.

[2] = ABTS cation radical scavenging assay; settings: mean ± SE, triplicate; read-out: EC50 Radical Scavenging Activities ABTS
Experimental: as §1, §2

[3] = Superoxide anion radical scavenging assay; settings: mean ± SE, triplicate; read-out: EC50 Radical Scavenging Activities Superoxide Anion Radicals
Experimental: as §1, §2

[4] = biological target: T1, type-VI B porcine pancreatic α-amylase (Sus scrofa, UniProt P00690); experiment: α-Amylase inhibition with soluble starch (1%); type: biochemical; settings: mean ± SE, triplicate
T1 construct: type-VI B porcine pancreatic α-amylase; from tissue; host or cells: porcine pancreas (preparation grade 'type-VI B')
T1 sequence (P00690 16-511): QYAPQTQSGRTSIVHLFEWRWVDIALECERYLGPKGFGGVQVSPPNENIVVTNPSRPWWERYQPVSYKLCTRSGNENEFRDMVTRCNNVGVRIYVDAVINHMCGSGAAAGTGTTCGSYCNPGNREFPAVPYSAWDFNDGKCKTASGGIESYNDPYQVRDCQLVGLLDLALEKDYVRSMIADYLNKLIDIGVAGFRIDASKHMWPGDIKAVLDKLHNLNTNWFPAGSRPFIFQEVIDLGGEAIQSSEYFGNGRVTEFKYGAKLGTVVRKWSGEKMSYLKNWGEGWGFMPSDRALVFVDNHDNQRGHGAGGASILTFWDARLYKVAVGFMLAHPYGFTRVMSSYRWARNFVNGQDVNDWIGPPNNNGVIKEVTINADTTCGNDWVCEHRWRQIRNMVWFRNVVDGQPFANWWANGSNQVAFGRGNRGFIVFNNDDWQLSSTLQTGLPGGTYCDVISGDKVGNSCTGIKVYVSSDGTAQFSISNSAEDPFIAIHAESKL
Experimental: Moreover, similar tests were carried out to reveal if the synthesized molecules inhibited α-amylase, another important carbohydrate-hydrolyzing enzyme.
(§3) Inhibitory activity of α-amylase and α-glycosidase was expressed as percent inhibition, calculated using the following formula. Inhibition (%) = (A control − A sample)/A control × 100
(§4) The IC50 values were obtained from a graph that correlated the percentage of the inhibition of each sample with its concentration. Each experiment included three replicates, along with appropriate blanks.

yeast α-glycosidase [5] = biological target: T2, yeast α-glycosidase (Saccharomyces cerevisiae, UniProt P38158); experiment: biochemical
T2 sequence (P38158 whole entry): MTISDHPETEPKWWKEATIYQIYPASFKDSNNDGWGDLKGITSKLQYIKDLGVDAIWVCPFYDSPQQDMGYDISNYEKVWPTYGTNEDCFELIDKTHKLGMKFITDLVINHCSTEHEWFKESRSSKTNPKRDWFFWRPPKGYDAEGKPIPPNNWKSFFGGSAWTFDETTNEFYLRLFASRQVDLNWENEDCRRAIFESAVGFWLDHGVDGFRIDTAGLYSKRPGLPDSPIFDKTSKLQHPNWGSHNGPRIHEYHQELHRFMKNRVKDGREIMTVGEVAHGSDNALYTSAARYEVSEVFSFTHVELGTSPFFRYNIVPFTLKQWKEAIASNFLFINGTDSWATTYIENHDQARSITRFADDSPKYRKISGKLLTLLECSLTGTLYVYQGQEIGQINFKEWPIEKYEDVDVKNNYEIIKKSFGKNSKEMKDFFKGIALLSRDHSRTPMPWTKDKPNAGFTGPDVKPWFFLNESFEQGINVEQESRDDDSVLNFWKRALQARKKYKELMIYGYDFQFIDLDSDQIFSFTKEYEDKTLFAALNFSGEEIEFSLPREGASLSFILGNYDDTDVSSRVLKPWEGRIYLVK
Text: as §3, §4

yeast α-glycosidase [6] = biological target: T2, yeast α-glycosidase; experiment: Kinetic analysis of α-glycosidase inhibition (Lineweaver–Burk, Dixon plots); type: biochemical
Experimental: (§5) For the kinetic studies, α-glycosidase and α-amylase were incubated with designated concentrations of the substrate pNPG and starch, respectively, in the absence (control) or presence of IC20-, IC40-, and IC60-inhibitory concentrations of 7d. The mode of inhibition, [Km], and [Vmax] values were determined by graphical means using Lineweaver–Burk plots. […] The kinetic results established that the maximum velocity (Vmax) of the 7d reaction (with increasing concentrations) remained constant and was catalyzed by α-glycosidase and α-amylase (Table 3).
(§6) The enzyme kinetics of the compounds’ inhibition of the glycosidase activity were examined using different concentrations of the substrate against the IC20, IC40, and IC60 inhibitory concentrations of the compounds, as previously reported. The type of inhibition, Km, and Vmax were calculated using a double-reciprocal plot of the substrate concentration and velocity (1/V against 1/[pNPG]). The inhibitory constant (Ki) was also determined using the Dixon plot.

α-amylase = biological target: T3, α-amylase (Sus scrofa, UniProt P00690); experiment: Kinetic analysis of α-amylase inhibition (Lineweaver–Burk, Dixon plots); type: biochemical, porcine
T3 construct: type-VI B porcine pancreatic α-amylase; from tissue; host or cells: porcine pancreas (preparation grade 'type-VI B')
T3 sequence (P00690 16-511): T1 sequence (P00690 16-511)
Experimental: as §5, §6

SMILES | EC50 [1] [µM] | EC50 [2] [µM] | EC50 [3] [µM] | IC50 [4] [µM] | IC50 (yeast α-glycosidase [5]) [µM] | melting point [°C] | other results
N#Cc1c(-c2ccc([N+](=O)[O-])cc2)cc(N2C(=O)c3ccccc3C2=O)nc1N [7b, 2-Amino-6-(1,3-dioxoisoindolin-2-yl)-4-(4-nitrophenyl)nicotinonitrile] | 2000 ± 150 | 2600 ± 770 | 2300 ± 1990 | 1500 ± 1500 | 1050 ± 880 | 153 to 155 | 
CC(=NNC(=O)COc1cccc2cccnc12)c1ccc(N2C(=O)c3ccccc3C2=O)cc1 [compound 3, N’-(1-(4-(1,3-Dioxoisoindolin-2-yl)phenyl)ethylidene)-2-(quinolin-8-yloxy)acetohydrazide] | 1600 ± 1020 | 1350 ± 1100 | 1100 ± 550 | 910 ± 1550 | 470 ± 350 | 211 to 213 | 
N#Cc1c(-c2ccc(Cl)cc2)nn(C(=O)COc2cccc3cccnc23)c1N [compound 4b, 5-Amino-3-(4-chlorophenyl)-1-(2-(quinolin-8-yloxy)acetyl)-1H-pyrazole-4-carbonitrile] | 5000 ± 250 | 4750 ± 420 | 4500 ± 2000 | 1550 ± 1670 | 990 ± 330 | 163 to 165 | 
N#Cc1c(-c2ccccc2O)nn(C(=O)COc2cccc3cccnc23)c1N [4c, 5-Amino-3-(2-hydroxyphenyl)-1-(2-(quinolin-8-yloxy)acetyl)-1H-pyrazole-4-carbonitrile] | 4550 ± 1570 | 7860 ± 550 | 5950 ± 1050 | 1600 ± 770 | 1110 ± 740 | 157 to 159 | 
N#Cc1c(-c2ccccc2)cc(N2C(=O)c3ccccc3C2=O)nc1N [compound 7a, 2-Amino-6-(1,3-dioxoisoindolin-2-yl)-4-phenylnicotinonitrile] | 1990 ± 90 | 2250 ± 220 | 2250 ± 660 | 3500 ± 1000 | 1780 ± 60 | 167 to 169 | 
COc1ccc(O)c(C(C)(C)C)c1 [BHA, Butylated hydroxyanisole, reference compound] | 800 ± 320 | 640 ± 310 | 950 ± 170 |  |  |  | 
S=C1N=NC(COc2cccc3cccnc23)=N1 [compound 6, 5-((Quinolin-8-yloxy)methyl)-3H-1,2,4-triazole-3-thione] | 3330 ± 860 | 8010 ± 330 | 6100 ± 1540 | 3650 ± 2470 | 1500 ± 2000 | 187 to 189 | 
N#Cc1c(-c2ccccc2O)cc(N2C(=O)c3ccccc3C2=O)[nH]c1=O [8c, 6-(1,3-Dioxoisoindolin-2-yl)-4-(2-hydroxyphenyl)-2-oxo-1,2-dihydropyridine-3-carbonitrile] | 2500 ± 1110 | 2440 ± 670 | 5150 ± 770 | 3550 ± 1550 | 1800 ± 720 | 205 to 207 | 
NNC(=O)COc1cccc2cccnc12 [compound 1, 2-(Quinolin-8-yloxy)acetohydrazide] | 4650 ± 2250 | 4500 ± 1140 | 4500 ± 1110 | 900 ± 1040 |  | 137 to 139 | IC50 (yeast α-glycosidase [5]; mean ± SE, triplicate, read-out: IC50 α-Glycosidase): 500 ± 660 µM
N#Cc1c(-c2ccc([N+](=O)[O-])cc2)nn(C(=O)COc2cccc3cccnc23)c1N [4a, 5-Amino-3-(4-nitrophenyl)-1-(2-(quinolin-8-yloxy)acetyl)-1H-pyrazole-4-carbonitrile] | 1500 ± 770 | 1300 ± 1000 | 1110 ± 270 | 720 ± 510 | 240 ± 50 | 157 to 159 | 
N#Cc1c(-c2ccc(Cl)c(Cl)c2O)cc(N2C(=O)c3ccccc3C2=O)[nH]c1=O [8d, 4-(3,4-Dichloro-2-hydroxyphenyl)-6-(1,3-dioxoisoindolin-2-yl)-2-oxo-1,2-dihydropyridine-3-carbonitrile] | 5050 ± 2220 | 9990 ± 1890 | 5220 ± 850 | 5000 ± 3000 | 2220 ± 110 | 233 to 235 | 
N#Cc1c(-c2ccc(Cl)c(Cl)c2O)cc(N2C(=O)c3ccccc3C2=O)nc1N [compound 7d, 2-Amino-4-(3,4-dichloro-2-hydroxyphenyl)-6-(1,3-dioxoisoindolin-2-yl)nicotinonitrile] | 650 ± 30 | 520 ± 250 | 930 ± 120 | 210 ± 60 | 70 ± 100 |  | IC20 (yeast α-glycosidase [6]): 30 µM; Ki (dissociation constant) (yeast α-glycosidase [6]; α-glycosidase, Dixon plot, mean ± SE): 0.47 mg; Mode of Inhibition (yeast α-glycosidase [6]; α-glycosidase, Lineweaver–Burk plot): competitive inhibition; 1/Vmax (reciprocal maximum velocity) (yeast α-glycosidase [6]; α-glycosidase, treatment IC20 0.03 μg): 28.82 10^3 (µM/min)^−1; 1/Vmax (reciprocal maximum velocity) (yeast α-glycosidase [6]; α-glycosidase, treatment IC40 0.06 μg): 29.00 10^3 (µM/min)^−1; 1/Vmax (reciprocal maximum velocity) (yeast α-glycosidase [6]; α-glycosidase, treatment IC60 0.08 μg): 29.29 10^3 (µM/min)^−1; Ki (dissociation constant) (α-amylase; Dixon plot, mean ± SE): 0.75 mg; Mode of Inhibition (α-amylase; Lineweaver–Burk plot): competitive inhibition; IC20 (α-amylase; inhibitory concentration used in kinetics): 80 µM; 1/Vmax (reciprocal maximum velocity) (α-amylase; treatment IC20 0.08 μg): 13.01 10^3 (µM/min)^−1; 1/Vmax (reciprocal maximum velocity) (α-amylase; treatment IC40 0.16 μg): 13.90 10^3 (µM/min)^−1; 1/Vmax (reciprocal maximum velocity) (α-amylase; treatment IC60 0.25 μg): 13.15 10^3 (µM/min)^−1
N#Cc1c(-c2ccccc2)cc(N2C(=O)c3ccccc3C2=O)[nH]c1=O [compound 8a, 6-(1,3-Dioxoisoindolin-2-yl)-2-oxo-4-phenyl-1,2-dihydropyridine-3-carbonitrile] | 3250 ± 1230 | 10000 ± 1170 | 5780 ± 3010 | 880 ± 360 | 1000 | 216 to 218 | 
N#Cc1c(-c2ccc([N+](=O)[O-])cc2)cc(N2C(=O)c3ccccc3C2=O)[nH]c1=O [8b, 6-(1,3-Dioxoisoindolin-2-yl)-4-(4-nitrophenyl)-2-oxo-1,2-dihydropyridine-3-carbonitrile] | 4500 ± 790 | 9880 ± 2250 | 6000 ± 2450 | 1600 ± 830 | 1010 ± 40 | 221 to 223 | 
N#Cc1c(-c2ccccc2O)cc(N2C(=O)c3ccccc3C2=O)nc1N [compound 7c, 2-Amino-6-(1,3-dioxoisoindolin-2-yl)-4-(2-hydroxyphenyl)nicotinonitrile] | 1000 ± 850 | 1230 ± 480 | 1000 | 260 ± 320 | 110 ± 40 | 160 to 162 | 
